These results are taken from PubChem BioAssay (NCI).

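The compound was tested at five concentrations on cells cultured in 96-well plates, with a 48-hour exposure period. GI50 is the concentration that inhibits growth by half. Definition used: TGI = concentration required for complete inhibition of growth.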

Among the test systems are 786-0 renal; A498 renal; CAKI-1 renal; EKVX NSCLC; IGROV1 ovarian; MDA-MB-231 breast; NCI-H522 lung; NCI/ADR-RES ovarian; SW-620 colon; UACC-257 melanoma.
Holding throughout (assay): inhibition of tumour cell growth, NCI panel, 48 h

Turning to `C=C1C(=O)O[C@H]2[C@H]1CC/C(COC(=O)N[C@@H](Cc1c[nH]c3ccccc13)C(=O)OC)=C\CC[C@@]1(C)O[C@@H]21`, the GI50 in the experiment on 786-0 renal is 1.48 µM; in the experiment with A498 renal it was 10.3 µM; with CAKI-1 renal, 1.2 µM; in the experiment on EKVX NSCLC it was 1.78 µM; in the experiment on IGROV1 ovarian, 1.22 µM; in the experiment with MDA-MB-231 breast, 1.41 µM. For the same molecule, the GI50 with NCI-H522 lung is 1.31 µM; in the experiment on NCI/ADR-RES ovarian it was 6.78 µM; with SW-620 colon, 1.47 µM; with UACC-257 melanoma, 1.86 µM. In addition, the TGI turned out to be 2.92 µM in the experiment on 786-0 renal; 22.3 µM with A498 renal; 2.89 µM in the experiment on CAKI-1 renal; 4.43 µM with EKVX NSCLC; 2.67 µM in the experiment on IGROV1 ovarian; 3.16 µM in the experiment on MDA-MB-231 breast. Further, the TGI in the experiment with NCI-H522 lung was 2.84 µM; in the experiment on NCI/ADR-RES ovarian, 27.3 µM; in the experiment on SW-620 colon, 3.67 µM; in the experiment with UACC-257 melanoma it was 3.97 µM.

Regarding `COc1ccc2c(c1)C(=O)c1c-2c(N2CCN(C(=O)CN(C)C)CC2)nc2ccccc12`, the GI50 with 786-0 renal is 14.4 µM; in the experiment on A498 renal, 15.4 µM; in the experiment on CAKI-1 renal, 47.9 µM; in the experiment on EKVX NSCLC, 17.7 µM; with IGROV1 ovarian it was 10 µM; in the experiment with MDA-MB-231 breast it was 13.3 µM. The GI50 is 13.7 µM in the experiment on NCI-H522 lung, 19.7 µM in the experiment on NCI/ADR-RES ovarian, 10.3 µM in the experiment with SW-620 colon and 12.1 µM with UACC-257 melanoma. In addition, the TGI was 33.7 µM with 786-0 renal; 31.8 µM in the experiment with A498 renal; over 100 µM in the experiment with CAKI-1 renal; 41.5 µM in the experiment on EKVX NSCLC; 26.4 µM in the experiment on IGROV1 ovarian; 28.9 µM with MDA-MB-231 breast. Further, the TGI is 30.6 µM in the experiment on NCI-H522 lung, 57.1 µM with NCI/ADR-RES ovarian, 26.3 µM with SW-620 colon and 30.3 µM in the experiment with UACC-257 melanoma.

`Nc1nc(F)nc2c1ncn2C1OC(COP(=O)(O)O)C(O)C1O` (stereo not given): the TGI in the experiment on 786-0 renal was 384 µM; in the experiment on A498 renal, 694 µM; in the experiment with CAKI-1 renal, over 68.4 µM; in the experiment on EKVX NSCLC, 406 µM; in the experiment on IGROV1 ovarian it was 952 µM; in the experiment with MDA-MB-231 breast, 772 µM. In addition, the TGI with NCI-H522 lung worked out at 740 µM; in the experiment on NCI/ADR-RES ovarian, 106 µM; with SW-620 colon it was 675 µM; with UACC-257 melanoma, 813 µM.

With `c1cncc(-c2cc(-c3cc(-c4cccnc4)n[nH]3)[nH]n2)c1`, the TGI in the experiment with 786-0 renal, in the experiment on A498 renal, with CAKI-1 renal, with EKVX NSCLC, in the experiment with IGROV1 ovarian and with MDA-MB-231 breast was over 100 µM each time. Further, the TGI in the experiment on NCI-H522 lung, in the experiment on NCI/ADR-RES ovarian, with SW-620 colon and in the experiment with UACC-257 melanoma was over 100 µM each time.

Take `N#Cc1c(SCc2ccccc2)nc2[nH]c(=S)[nH]c(=S)c2c1-c1ccco1`: the GI50 is 42.6 µM in the experiment on 786-0 renal; 55.3 µM with A498 renal; 42.9 µM in the experiment on CAKI-1 renal; 17 µM with EKVX NSCLC; over 100 µM in the experiment with IGROV1 ovarian; 39.9 µM in the experiment with MDA-MB-231 breast. The GI50 in the experiment with NCI-H522 lung is over 100 µM; in the experiment on NCI/ADR-RES ovarian, 26.6 µM; in the experiment with SW-620 colon it was 33.9 µM; in the experiment on UACC-257 melanoma it was 66.5 µM. Besides, the TGI in the experiment on 786-0 renal is over 100 µM; with A498 renal it was over 100 µM; in the experiment with CAKI-1 renal, over 100 µM; with EKVX NSCLC it was over 100 µM; in the experiment on IGROV1 ovarian, over 100 µM; with MDA-MB-231 breast, 71.3 µM. The TGI in the experiment on NCI-H522 lung, in the experiment with NCI/ADR-RES ovarian, in the experiment with SW-620 colon and in the experiment on UACC-257 melanoma was over 100 µM each time.

Take `COc1ccc(/C(Cl)=C(\C=O)c2cc(OC)c(OC)c(OC)c2)cc1OC`: the TGI in the experiment on 786-0 renal was over 100 µM; in the experiment with A498 renal it was over 90.3 µM; in the experiment on CAKI-1 renal, over 100 µM; in the experiment on EKVX NSCLC it was over 100 µM; with IGROV1 ovarian it was over 100 µM; in the experiment with MDA-MB-231 breast, over 100 µM. Besides, the TGI is 48.8 µM with NCI-H522 lung, 40.2 µM with NCI/ADR-RES ovarian, over 100 µM with SW-620 colon and over 100 µM in the experiment with UACC-257 melanoma.

Take `CCOC(=O)CCc1c(C)c2ccc(O)cc2oc1=O`: the TGI in the experiment with 786-0 renal, in the experiment with A498 renal, in the experiment with CAKI-1 renal, in the experiment on EKVX NSCLC, in the experiment with IGROV1 ovarian and in the experiment with MDA-MB-231 breast was over 100 µM each time. In addition, the TGI with NCI-H522 lung, in the experiment on NCI/ADR-RES ovarian, in the experiment with SW-620 colon and in the experiment on UACC-257 melanoma was over 100 µM in each case.

`CCSc1nc(=S)[nH]c2[nH]ncc12`: the GI50 with 786-0 renal is over 100 µM; in the experiment with A498 renal, 21.6 µM; in the experiment on CAKI-1 renal it was 50.8 µM; with EKVX NSCLC, 54.1 µM; with IGROV1 ovarian, 70.3 µM; in the experiment with MDA-MB-231 breast it was over 100 µM. Moreover, the GI50 with NCI-H522 lung was 46.1 µM; in the experiment on NCI/ADR-RES ovarian, over 100 µM; in the experiment with SW-620 colon it was 97.8 µM; in the experiment with UACC-257 melanoma, over 100 µM. The TGI in the experiment with 786-0 renal was over 100 µM; in the experiment with A498 renal, 72.7 µM; with CAKI-1 renal, over 100 µM; with EKVX NSCLC, over 100 µM; in the experiment with IGROV1 ovarian, over 100 µM; in the experiment with MDA-MB-231 breast, over 100 µM. The TGI in the experiment on NCI-H522 lung, in the experiment on NCI/ADR-RES ovarian, in the experiment on SW-620 colon and with UACC-257 melanoma was over 100 µM throughout.
